Measurements reported in PMC6061700 (Toxicological Sciences, 2018).
Read-outs that look alike come from different tables or passages of the source. Marks after values point to notes of the source that are not given here.

Tests used:
[1] = system: human induced pluripotent stem cell-derived cardiomyocytes (hiPSC-CMs)
[2] = system: Cellular Dynamics International [CDI] human stem cell-derived cardiomyocytes
[3] = system: Axiogenesis [AXG] human stem cell-derived cardiomyocytes; conditions: for FPDc20 concentration (20% increase in FPDc): human; for EAD occurrence (proportion of replicates exhibiting EADs): AXG
[4] = system: Stanford Cardiovascular Institute [SCI] human stem cell-derived cardiomyocytes; conditions: for EAD occurrence (proportion of replicates exhibiting EADs): study 10, SCI, AXN
[5] = free clinical Cmax; ref Kramer et al. (2013); cited from earlier work
[6] = 20% increase in FPDc, median across qualified studies

SMILES: Cc1cccc(C)c1OCC(C)N (stereo not shown) [Mexiletine]
- FPDc20: median ([1]; human): 30 µM
- FPDc20: span ([1]; human): 0.5 log unit
- studies in which FPDc20 was detected ([1]; human): 3 of 8
- EAD occurrence (proportion of replicates exhibiting EADs) ([2]; human): 3/3
- FPDc20 concentration (20% increase in FPDc) [3]: 30 µM

SMILES: COC(=O)C1=C(C)NC(C)=C(C(=O)OC)C1c1ccccc1[N+](=O)[O-] [Nifedipine]
- EAD occurrence [1]: No EADs
- FPDc20: median ([1]; human): 0.1 µM
- FPDc20: span ([1]; human): 0.5 log unit
- FPDc20 concentration (20% decrease in FPDc) ([4]; human): 0.3 µM

SMILES: CC(C)(Oc1ccc(Cl)cc1)C(=O)NC1C2CC3CC1CC(NS(C)(=O)=O)(C3)C2 (stereo not shown) [JNJ303]
- EAD occurrence ([1]; across all studies, any concentration): No EADs
- prolongation of FPD and FPDc ([2]; single example study, CDI myocytes, highest concentration tested (300 nM)): ~10%

SMILES: COc1c(N2C[C@@H]3CCCN[C@@H]3C2)c(F)cc2c(=O)c(C(=O)O)cn(C3CC3)c12 [Moxifloxacin]
- FPDc20: median [1, 6]: 100 µM
- Free Drug (free Cmax) [5]: 10.96* µM
- FPDc20 concentration (20% increase in FPDc) ([4]; human): 30 µM
- EAD occurrence (proportion of replicates exhibiting EADs) ([4]; 30 µM): 1/3
- EAD occurrence (proportion of replicates exhibiting EADs) ([4]; 100 µM): 2/3
- EAD occurrence (proportion of replicates exhibiting EADs) ([2]; study 6, CDI, AXN, 100 µM): 3/3
- EAD occurrence (proportion of replicates exhibiting EADs) ([2]; study 9, CDI, ACA, 30 µM): 1/3
- EAD occurrence (proportion of replicates exhibiting EADs) ([2]; study 9, CDI, ACA, 100 µM): 2/3
- FPDc20 concentration (20% increase in FPDc) [3]: 100 µM

SMILES: COc1ccccc1OCC(O)CN1CCN(CC(=O)Nc2c(C)cccc2C)CC1 (stereo not shown) [Ranolazine]
- FPDc20: median [1, 6]: 10 µM
- FPDc20 concentration (20% increase in FPDc) ([4]; human): 10 µM
- EAD occurrence (proportion of replicates exhibiting EADs) ([4]; 10 µM): 1/3
- EAD occurrence (proportion of replicates exhibiting EADs) ([4]; 30 µM): 2/3
- EAD occurrence (proportion of replicates exhibiting EADs) ([2]; study 6, CDI, AXN, 10 µM): 3/3
- EAD occurrence (proportion of replicates exhibiting EADs) ([2]; study 6, CDI, AXN, 30 µM): 3/3
- EAD occurrence (proportion of replicates exhibiting EADs) ([2]; study 7, CDI, MCS, 30 µM): 3/3
- EAD occurrence (proportion of replicates exhibiting EADs) ([2]; study 8, CDI, MCS, 30 µM): 5/5
- EAD occurrence (proportion of replicates exhibiting EADs) ([2]; study 9, CDI, ACA, 10 µM): 3/3
- EAD occurrence (proportion of replicates exhibiting EADs) ([2]; study 9, CDI, ACA, 30 µM): 2/3
- EAD occurrence (proportion of replicates exhibiting EADs) ([3]; study 4, MCS, 30 µM): 3/4

SMILES: O=C(NCC1CCCCN1)c1cc(OCC(F)(F)F)ccc1OCC(F)(F)F (stereo not shown) [Flecainide]
- FPDc20: median [1, 6]: 1 µM
- FPDc20 concentration (20% increase in FPDc) ([4]; human): 1 µM
- EAD occurrence (proportion of replicates exhibiting EADs) ([4]; 1 µM): 1/3
- EAD occurrence (proportion of replicates exhibiting EADs) ([4]; 3 µM): 2/3
- EAD occurrence (proportion of replicates exhibiting EADs) ([2]; study 5, CDI, AXN, 1 µM): 2/4
- EAD occurrence (proportion of replicates exhibiting EADs) ([2]; study 5, CDI, AXN, 3 µM): 1/4
- EAD occurrence (proportion of replicates exhibiting EADs) ([2]; study 6, CDI, AXN, 1 µM): 1/3
- EAD occurrence (proportion of replicates exhibiting EADs) ([2]; study 6, CDI, AXN, 3 µM): 1/3
- EAD occurrence (proportion of replicates exhibiting EADs) ([2]; study 7, CDI, MCS, 3 µM): 3/3
- EAD occurrence (proportion of replicates exhibiting EADs) ([2]; study 8, CDI, MCS, 3 µM): 4/4
- EAD occurrence (proportion of replicates exhibiting EADs) ([2]; study 9, CDI, ACA, 3 µM): 3/3
- EAD occurrence (proportion of replicates exhibiting EADs) ([3]; study 4, MCS, 3 µM): 1/3

SMILES: C=C[C@H]1C[N@@]2CC[C@H]1C[C@@H]2[C@@H](O)c1ccnc2ccc(OC)cc12 [Quinidine]
- FPDc20: median [1, 6]: 1 µM
- FPDc20: span ([1]; 20% increase in FPDc, span across qualified studies): 1 log unit
- Free Drug (free Cmax) [5]: 3.237* µM
- FPDc20 concentration (20% increase in FPDc) ([4]; human): 1 µM
- EAD occurrence (proportion of replicates exhibiting EADs) ([4]; 1 µM): 2/3
- EAD occurrence (proportion of replicates exhibiting EADs) ([4]; 3 µM): 3/3
- EAD occurrence (proportion of replicates exhibiting EADs) ([2]; study 5, CDI, AXN, 10 µM): 2/3
- EAD occurrence (proportion of replicates exhibiting EADs) ([2]; study 6, CDI, AXN, 1 µM): 3/3
- EAD occurrence (proportion of replicates exhibiting EADs) ([2]; study 6, CDI, AXN, 3 µM): 3/3
- EAD occurrence (proportion of replicates exhibiting EADs) ([2]; study 7, CDI, MCS, 3 µM): 1/3
- EAD occurrence (proportion of replicates exhibiting EADs) ([2]; study 7, CDI, MCS, 10 µM): 3/3
- EAD occurrence (proportion of replicates exhibiting EADs) ([2]; study 8, CDI, MCS, 10 µM): 4/4
- EAD occurrence (proportion of replicates exhibiting EADs) ([2]; study 9, CDI, ACA, 1 µM): 1/3
- EAD occurrence (proportion of replicates exhibiting EADs) ([2]; study 9, CDI, ACA, 3 µM): 3/3
- EAD occurrence (proportion of replicates exhibiting EADs) ([2]; study 9, CDI, ACA, 10 µM): 2/3
- EAD occurrence (proportion of replicates exhibiting EADs) ([3]; study 1, AXN, 10 µM): 3/3
- EAD occurrence (proportion of replicates exhibiting EADs) ([3]; study 2, AXN, 10 µM): 2/3
- EAD occurrence (proportion of replicates exhibiting EADs) ([3]; study 4, MCS, 10 µM): 3/3
